Earlier results as cited in PMC5560747, “Computational-experimental approach to drug-target interaction mapping: A case study on kinase inhibitors” (PLoS Computational Biology, 2017).

Key:
Design in all cases: method as in Gao et al. [42]
BRSK1 = conditions: ref Gao et al. [42], cited from earlier work
FES = conditions: ref Gao et al. [42], cited from earlier work
PRKX = conditions: ref Gao et al. [42], cited from earlier work
TSSK2 = conditions: ref Gao et al. [42], cited from earlier work
PAK4 = conditions: ref Gao et al. [42], cited from earlier work
STK24 = conditions: ref Gao et al. [42], cited from earlier work
SYK = SYK (Homo sapiens, UniProt P43405); conditions: ref Gao et al. [42]; cited from earlier work
DAPK3 = conditions: ref Gao et al. [42], cited from earlier work
Aurora A = molecular target: T1, Aurora A (Homo sapiens, UniProt O14965); conditions: ref Gao et al. [42], cited from earlier work
T1 construct: purchased SignalChem A28-18G-10
T1 sequence (O14965 1-403): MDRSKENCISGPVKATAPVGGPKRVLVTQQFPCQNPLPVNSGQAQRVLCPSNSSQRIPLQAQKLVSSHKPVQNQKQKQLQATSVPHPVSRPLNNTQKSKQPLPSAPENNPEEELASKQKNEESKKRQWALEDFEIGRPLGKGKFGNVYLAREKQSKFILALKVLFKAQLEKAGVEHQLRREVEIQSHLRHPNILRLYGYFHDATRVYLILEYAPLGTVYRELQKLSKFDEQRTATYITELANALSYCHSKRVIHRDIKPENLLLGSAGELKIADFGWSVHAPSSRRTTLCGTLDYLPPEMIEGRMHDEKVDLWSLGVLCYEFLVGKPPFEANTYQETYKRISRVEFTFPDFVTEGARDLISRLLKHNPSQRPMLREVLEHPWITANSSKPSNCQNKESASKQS

IKKb = conditions: ref Gao et al. [42], cited from earlier work
CSNK1G3 = conditions: ref Gao et al. [42], cited from earlier work
InsR = InsR (Homo sapiens, UniProt P06213); conditions: ref Gao et al. [42], cited from earlier work
MAPKAPK2 = conditions: ref Gao et al. [42], cited from earlier work
CSNK1G2 = conditions: ref Gao et al. [42], cited from earlier work
BLK = conditions: ref Gao et al. [42], cited from earlier work
TAOK1 = conditions: ref Gao et al. [42], cited from earlier work
FRK = molecular target: T2, FRK (Homo sapiens, UniProt P42685); conditions: ref Gao et al. [42], cited from earlier work
T2 construct: purchased SignalChem F14-11G-10

ITK = ITK (Homo sapiens, UniProt Q08881); conditions: ref Gao et al. [42]; cited from earlier work
CAMK1 = conditions: ref Gao et al. [42], cited from earlier work
PRKD2 = conditions: ref Gao et al. [42], cited from earlier work
TSSK1B = conditions: ref Gao et al. [42], cited from earlier work
MAPKAPK5 = conditions: ref Gao et al. [42], cited from earlier work
LYN B = LYN B (Homo sapiens, UniProt P07948); conditions: ref Gao et al. [42], cited from earlier work
CSNK1D = conditions: ref Gao et al. [42], cited from earlier work
IGF1R = IGF1R (Homo sapiens, UniProt P08069); conditions: ref Gao et al. [42]; cited from earlier work
TYRO3 = conditions: ref Gao et al. [42], cited from earlier work
PIM2 = conditions: ref Gao et al. [42], cited from earlier work
PDK1 = conditions: ref Gao et al. [42], cited from earlier work
JAK3 = JAK3 (Homo sapiens, UniProt P52333); conditions: ref Gao et al. [42], cited from earlier work
Chain of JAK3 (P52333 whole entry): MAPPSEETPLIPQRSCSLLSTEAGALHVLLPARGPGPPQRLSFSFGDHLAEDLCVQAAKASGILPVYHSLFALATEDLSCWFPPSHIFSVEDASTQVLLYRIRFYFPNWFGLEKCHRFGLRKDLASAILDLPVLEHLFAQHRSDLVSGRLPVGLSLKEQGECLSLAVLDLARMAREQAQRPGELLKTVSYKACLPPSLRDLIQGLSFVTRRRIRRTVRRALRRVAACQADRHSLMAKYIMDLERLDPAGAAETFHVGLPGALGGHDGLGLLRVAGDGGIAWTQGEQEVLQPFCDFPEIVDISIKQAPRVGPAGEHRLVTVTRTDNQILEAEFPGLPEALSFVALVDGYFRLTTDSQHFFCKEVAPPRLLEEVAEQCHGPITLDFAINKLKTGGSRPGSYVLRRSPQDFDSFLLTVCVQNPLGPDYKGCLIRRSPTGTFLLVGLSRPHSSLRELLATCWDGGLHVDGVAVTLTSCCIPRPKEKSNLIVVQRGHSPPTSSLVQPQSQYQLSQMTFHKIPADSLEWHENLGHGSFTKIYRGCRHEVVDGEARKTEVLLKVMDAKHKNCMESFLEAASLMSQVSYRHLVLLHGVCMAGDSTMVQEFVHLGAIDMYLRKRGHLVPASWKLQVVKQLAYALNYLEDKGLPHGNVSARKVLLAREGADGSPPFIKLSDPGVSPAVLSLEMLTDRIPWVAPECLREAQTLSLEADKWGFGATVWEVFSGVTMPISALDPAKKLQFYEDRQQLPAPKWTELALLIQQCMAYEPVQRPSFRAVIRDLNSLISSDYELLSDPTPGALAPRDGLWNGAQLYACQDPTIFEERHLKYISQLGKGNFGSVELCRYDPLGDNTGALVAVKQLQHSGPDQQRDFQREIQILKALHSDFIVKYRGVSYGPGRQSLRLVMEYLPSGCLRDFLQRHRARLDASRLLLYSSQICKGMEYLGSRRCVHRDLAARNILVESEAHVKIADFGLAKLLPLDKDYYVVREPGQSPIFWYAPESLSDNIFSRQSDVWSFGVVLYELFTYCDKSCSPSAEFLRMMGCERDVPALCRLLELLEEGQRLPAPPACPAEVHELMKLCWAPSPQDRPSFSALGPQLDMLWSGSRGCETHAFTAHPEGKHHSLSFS

Chain of InsR (P06213 28-1382): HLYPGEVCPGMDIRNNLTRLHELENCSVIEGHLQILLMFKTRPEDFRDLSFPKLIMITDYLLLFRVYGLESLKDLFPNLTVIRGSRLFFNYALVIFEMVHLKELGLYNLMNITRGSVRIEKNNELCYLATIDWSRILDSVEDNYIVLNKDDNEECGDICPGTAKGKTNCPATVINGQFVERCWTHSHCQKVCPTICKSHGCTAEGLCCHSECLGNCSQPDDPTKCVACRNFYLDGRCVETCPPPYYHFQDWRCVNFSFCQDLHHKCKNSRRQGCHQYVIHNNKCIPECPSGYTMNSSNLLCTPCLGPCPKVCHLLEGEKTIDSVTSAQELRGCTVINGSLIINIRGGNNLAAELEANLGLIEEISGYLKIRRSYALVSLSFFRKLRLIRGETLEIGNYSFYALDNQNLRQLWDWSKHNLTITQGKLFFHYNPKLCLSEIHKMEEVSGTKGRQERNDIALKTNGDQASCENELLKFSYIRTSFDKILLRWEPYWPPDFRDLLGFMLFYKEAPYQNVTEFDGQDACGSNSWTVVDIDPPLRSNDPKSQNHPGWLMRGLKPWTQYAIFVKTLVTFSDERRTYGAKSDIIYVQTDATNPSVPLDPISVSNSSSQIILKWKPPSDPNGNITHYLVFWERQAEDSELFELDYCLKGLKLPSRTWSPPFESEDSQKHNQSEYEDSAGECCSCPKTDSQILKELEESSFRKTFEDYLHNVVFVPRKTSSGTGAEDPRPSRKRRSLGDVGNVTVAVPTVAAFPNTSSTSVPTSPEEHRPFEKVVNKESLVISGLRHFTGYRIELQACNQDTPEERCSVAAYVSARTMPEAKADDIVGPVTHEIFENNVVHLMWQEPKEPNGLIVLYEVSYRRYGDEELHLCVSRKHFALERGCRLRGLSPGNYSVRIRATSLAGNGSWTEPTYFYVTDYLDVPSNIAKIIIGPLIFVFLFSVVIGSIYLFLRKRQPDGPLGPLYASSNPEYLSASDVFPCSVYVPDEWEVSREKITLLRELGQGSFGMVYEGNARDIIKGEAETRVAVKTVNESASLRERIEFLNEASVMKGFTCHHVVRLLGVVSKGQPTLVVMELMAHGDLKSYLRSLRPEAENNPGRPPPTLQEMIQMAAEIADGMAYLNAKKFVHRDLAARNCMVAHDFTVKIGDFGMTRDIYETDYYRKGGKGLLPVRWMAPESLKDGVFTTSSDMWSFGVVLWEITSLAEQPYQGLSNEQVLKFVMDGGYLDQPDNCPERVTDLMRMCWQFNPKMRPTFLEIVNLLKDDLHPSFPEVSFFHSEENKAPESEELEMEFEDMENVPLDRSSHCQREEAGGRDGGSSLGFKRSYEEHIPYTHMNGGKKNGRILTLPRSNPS
Chain of LYN B (P07948 1-491 isoform P07948-2): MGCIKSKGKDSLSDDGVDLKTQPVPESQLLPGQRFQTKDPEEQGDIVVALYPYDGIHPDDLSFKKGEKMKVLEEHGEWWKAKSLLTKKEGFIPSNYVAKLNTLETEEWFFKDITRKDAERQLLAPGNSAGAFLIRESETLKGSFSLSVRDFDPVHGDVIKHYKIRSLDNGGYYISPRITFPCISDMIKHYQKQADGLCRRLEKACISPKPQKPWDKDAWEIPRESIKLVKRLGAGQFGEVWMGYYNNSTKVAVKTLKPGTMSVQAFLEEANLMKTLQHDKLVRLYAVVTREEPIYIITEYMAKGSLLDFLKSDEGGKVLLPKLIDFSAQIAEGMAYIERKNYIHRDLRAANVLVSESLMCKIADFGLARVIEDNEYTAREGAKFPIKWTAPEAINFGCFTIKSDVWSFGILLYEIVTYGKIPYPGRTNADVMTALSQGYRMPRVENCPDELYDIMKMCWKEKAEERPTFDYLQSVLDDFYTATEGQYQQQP
T2 sequence (P42685 whole entry): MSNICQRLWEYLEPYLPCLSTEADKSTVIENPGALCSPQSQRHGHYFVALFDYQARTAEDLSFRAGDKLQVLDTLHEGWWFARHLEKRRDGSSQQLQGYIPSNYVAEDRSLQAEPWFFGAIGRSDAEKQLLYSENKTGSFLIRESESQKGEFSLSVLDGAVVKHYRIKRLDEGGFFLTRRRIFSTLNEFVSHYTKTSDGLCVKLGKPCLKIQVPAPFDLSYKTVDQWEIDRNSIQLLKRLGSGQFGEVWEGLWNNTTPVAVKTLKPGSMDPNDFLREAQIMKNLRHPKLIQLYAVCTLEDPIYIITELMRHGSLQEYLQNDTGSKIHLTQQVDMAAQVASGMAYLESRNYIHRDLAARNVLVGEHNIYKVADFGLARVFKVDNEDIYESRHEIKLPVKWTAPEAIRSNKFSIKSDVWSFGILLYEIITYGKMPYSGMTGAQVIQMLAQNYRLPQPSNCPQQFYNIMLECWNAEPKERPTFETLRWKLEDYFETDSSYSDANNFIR
Chain of ITK (Q08881 whole entry): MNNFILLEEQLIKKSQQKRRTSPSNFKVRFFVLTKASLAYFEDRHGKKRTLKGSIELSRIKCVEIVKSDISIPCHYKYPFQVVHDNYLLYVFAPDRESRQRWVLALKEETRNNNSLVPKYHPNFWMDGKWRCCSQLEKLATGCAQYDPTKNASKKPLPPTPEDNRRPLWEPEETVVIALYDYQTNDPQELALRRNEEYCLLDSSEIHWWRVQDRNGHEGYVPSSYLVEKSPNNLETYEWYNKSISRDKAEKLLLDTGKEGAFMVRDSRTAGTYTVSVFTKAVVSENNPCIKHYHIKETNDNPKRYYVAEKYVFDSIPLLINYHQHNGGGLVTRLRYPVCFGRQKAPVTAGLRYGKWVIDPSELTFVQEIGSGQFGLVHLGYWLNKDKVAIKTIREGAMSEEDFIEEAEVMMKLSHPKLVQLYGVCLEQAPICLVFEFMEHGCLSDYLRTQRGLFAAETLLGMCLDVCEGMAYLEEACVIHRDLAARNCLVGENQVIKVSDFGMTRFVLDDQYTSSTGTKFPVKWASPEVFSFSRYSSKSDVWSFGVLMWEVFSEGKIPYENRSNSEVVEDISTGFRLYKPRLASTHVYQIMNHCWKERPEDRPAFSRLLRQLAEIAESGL

**Q.** Which “Gao et al. % of activity remaining at 1 µM” value (BRSK1; 1 µM) does the source give for COc1cc2nccc(Oc3ccc(NC(=O)Nc4cc(C)on4)c(Cl)c3)c2cc1OC [TIVOZANIB, Tivozanib] here?
**A.** Its value is 65%.

**Q.** And the “Gao et al. % of activity remaining at 10 µM” value (BRSK1; 10 µM)?
**A.** Its value is 46%.

**Q.** And the “Gao et al. % of activity remaining at 1 µM” value (FES; 1 µM)?
**A.** The value was 78%.

**Q.** What about the “Gao et al. % of activity remaining at 10 µM” value (FES; 10 µM) of the same compound?
**A.** Its value is 46%.

**Q.** What about the “Gao et al. % of activity remaining at 1 µM” value (PRKX; 1 µM) of the same compound?
**A.** The value was 97%.

**Q.** What about the “Gao et al. % of activity remaining at 10 µM” value (PRKX; 10 µM) of the same compound?
**A.** The value was 59%.

**Q.** And the “Gao et al. % of activity remaining at 1 µM” value (TSSK2; 1 µM)?
**A.** Its value is 90%.

**Q.** What about the “Gao et al. % of activity remaining at 10 µM” value (TSSK2; 10 µM) of the same compound?
**A.** The value was 78%.

**Q.** What about the “Gao et al. % of activity remaining at 1 µM” value (PAK4; 1 µM) of the same compound?
**A.** The value was 99%.

**Q.** What about the “Gao et al. % of activity remaining at 10 µM” value (PAK4; 10 µM) of the same compound?
**A.** The value was 92%.

**Q.** And the “Gao et al. % of activity remaining at 1 µM” value (STK24; 1 µM)?
**A.** Its value is 118%.

**Q.** What about the “Gao et al. % of activity remaining at 10 µM” value (STK24; 10 µM) of the same compound?
**A.** Its value is 78%.

**Q.** And the “Gao et al. % of activity remaining at 10 µM” value (SYK)?
**A.** The value was 73%.

**Q.** What about the “Gao et al. % of activity remaining at 1 µM” value (DAPK3; 1 µM) of the same compound?
**A.** The value was 82%.

**Q.** What about the “Gao et al. % of activity remaining at 10 µM” value (DAPK3; 10 µM) of the same compound?
**A.** The value was 90%.

**Q.** And the “Gao et al. % of activity remaining at 1 µM” value (Aurora A; 1 µM)?
**A.** The value was 7%.

**Q.** And the “Gao et al. % of activity remaining at 10 µM” value (Aurora A; 10 µM)?
**A.** The value was 7%.

**Q.** And the “Gao et al. % of activity remaining at 1 µM” value (IKKb; 1 µM)?
**A.** The value was 104%.

**Q.** And the “Gao et al. % of activity remaining at 10 µM” value (IKKb; 10 µM)?
**A.** Its value is 102%.

**Q.** What about the “Gao et al. % of activity remaining at 1 µM” value (CSNK1G3; 1 µM) of the same compound?
**A.** Its value is 104%.

**Q.** And the “Gao et al. % of activity remaining at 10 µM” value (CSNK1G3; 10 µM)?
**A.** Its value is 93%.

**Q.** What about the “Gao et al. % of activity remaining at 1 µM” value (InsR; 1 µM) of the same compound?
**A.** Its value is 102%.

**Q.** What about the “Gao et al. % of activity remaining at 10 µM” value (InsR; 10 µM) of the same compound?
**A.** Its value is 29%.

**Q.** And the “Gao et al. % of activity remaining at 1 µM” value (MAPKAPK2; 1 µM)?
**A.** Its value is 85%.

**Q.** What about the “Gao et al. % of activity remaining at 10 µM” value (MAPKAPK2; 10 µM) of the same compound?
**A.** Its value is 100%.

**Q.** And the “Gao et al. % of activity remaining at 1 µM” value (CSNK1G2; 1 µM)?
**A.** The value was 80%.

**Q.** And the “Gao et al. % of activity remaining at 10 µM” value (CSNK1G2; 10 µM)?
**A.** Its value is 73%.

**Q.** What about the “Gao et al. % of activity remaining at 1 µM” value (BLK; 1 µM) of the same compound?
**A.** The value was 2%.

**Q.** What about the “Gao et al. % of activity remaining at 10 µM” value (BLK; 10 µM) of the same compound?
**A.** Its value is 0%.

**Q.** What about the “Gao et al. % of activity remaining at 1 µM” value (TAOK1; 1 µM) of the same compound?
**A.** Its value is 91%.

**Q.** What about the “Gao et al. % of activity remaining at 10 µM” value (TAOK1; 10 µM) of the same compound?
**A.** The value was 52%.

**Q.** And the “Gao et al. % of activity remaining at 1 µM” value (FRK; 1 µM)?
**A.** Its value is 2%.

**Q.** What about the “Gao et al. % of activity remaining at 10 µM” value (FRK; 10 µM) of the same compound?
**A.** The value was -3%.

**Q.** What about the “Gao et al. % of activity remaining at 10 µM” value (ITK) of the same compound?
**A.** The value was 51%.

**Q.** And the “Gao et al. % of activity remaining at 1 µM” value (CAMK1; 1 µM)?
**A.** Its value is 105%.

**Q.** And the “Gao et al. % of activity remaining at 10 µM” value (CAMK1; 10 µM)?
**A.** Its value is 41%.

**Q.** And the “Gao et al. % of activity remaining at 1 µM” value (PRKD2; 1 µM)?
**A.** Its value is 95%.

**Q.** What about the “Gao et al. % of activity remaining at 10 µM” value (PRKD2; 10 µM) of the same compound?
**A.** Its value is 103%.

**Q.** And the “Gao et al. % of activity remaining at 1 µM” value (TSSK1B; 1 µM)?
**A.** The value was 94%.

**Q.** And the “Gao et al. % of activity remaining at 10 µM” value (TSSK1B; 10 µM)?
**A.** The value was 82%.

**Q.** What about the “Gao et al. % of activity remaining at 1 µM” value (MAPKAPK5; 1 µM) of the same compound?
**A.** The value was 99%.

**Q.** And the “Gao et al. % of activity remaining at 10 µM” value (MAPKAPK5; 10 µM)?
**A.** Its value is 70%.

**Q.** And the “Gao et al. % of activity remaining at 1 µM” value (LYN B; 1 µM)?
**A.** The value was -1%.

**Q.** What about the “Gao et al. % of activity remaining at 10 µM” value (LYN B; 10 µM) of the same compound?
**A.** The value was 2%.

**Q.** What about the “Gao et al. % of activity remaining at 1 µM” value (CSNK1D; 1 µM) of the same compound?
**A.** The value was 85%.

**Q.** And the “Gao et al. % of activity remaining at 10 µM” value (CSNK1D; 10 µM)?
**A.** Its value is 61%.

**Q.** What about the “Gao et al. % of activity remaining at 1 µM” value (IGF1R) of the same compound?
**A.** The value was 135%.

**Q.** What about the “Gao et al. % of activity remaining at 1 µM” value (TYRO3; 1 µM) of the same compound?
**A.** Its value is 10%.

**Q.** What about the “Gao et al. % of activity remaining at 10 µM” value (TYRO3; 10 µM) of the same compound?
**A.** Its value is 8%.

**Q.** What about the “Gao et al. % of activity remaining at 1 µM” value (PIM2; 1 µM) of the same compound?
**A.** Its value is 114%.

**Q.** What about the “Gao et al. % of activity remaining at 10 µM” value (PIM2; 10 µM) of the same compound?
**A.** The value was 103%.

**Q.** And the “Gao et al. % of activity remaining at 1 µM” value (PDK1; 1 µM)?
**A.** The value was 110%.

**Q.** And the “Gao et al. % of activity remaining at 10 µM” value (PDK1; 10 µM)?
**A.** Its value is 116%.

**Q.** And the “Gao et al. % of activity remaining at 1 µM” value (JAK3; 1 µM)?
**A.** Its value is 100%.

**Q.** And the “Gao et al. % of activity remaining at 10 µM” value (JAK3; 10 µM)?
**A.** The value was 48%.
